Results: US5493024A, “3,4,N-trisubstituted-4,5-dihydro-1H-pyrazole-1-carboxamides and their use as insectioides” (DowElanco, priority 1993, dated 1996)
≈ marks a conversion by molar mass, not a printed value.

Experiments:
beet armyworm [1] = assay: Effect on beet armyworm, contact and ingestion test (treated cotton leaf discs); assay type: in vivo, S. exigua (beet armyworm); settings: second-instar larvae, sprayed cotton leaf discs, 5 days at 25° C; for LC50: Spodoptera exigua, foliar, 120 h, read-out: BEET ARMYWORM Contact and Ingestion Test LC50, ppm
Experimental: (§1) Effect on Tobacco Budworm and Beet Armyworm by Leaf Ingestion and/or Contact.
(§2) Stock solutions of the compounds to be tested having a known concentration were prepared by dissolving weighed amounts in a 90:10 mixture of high-purity acetone and ethanol and these solutions were diluted with distilled water (containing 0.05 percent by weight Tween 20™ surfactant) to obtain the spray solutions of known concentration employed. Greenhouse-grown cotton leaves of uniform age were cut into 2.5 cm diameter discs and one disc was placed in the bottom of each of a number of 30 mL plastic cups. The cups were then sprayed by means of a track sprayer applying 0.055 mL of spray solution per cup. The leaf discs were allowed to dry and then a single second-instar H. virescens (tobacco budworm) or S. exigua (beet armyworm) larva was added to each cup and each cup was capped with a perforated plastic lid. Ten cups were prepared for each insect species and each application rate and five applications rates were usually run. Treated cups were stored for 5 days at 25° C. and were then graded for mortality. Untreated controls and positive controls (cypermethrin) were run simultaneously. The amount of test chemical required to kill half of the larvae (LD50) was calculated.

beet armyworm [2] = assay: Effect on beet armyworm, contact test (treated Teflon discs); assay type: in vivo, S. exigua (beet armyworm); settings: second-instar larvae, sprayed Teflon discs 24 hours, then 5 more days on untreated leaf, 25° C; for LC50: Spodoptera exigua, 144 h, read-out: BEET ARMYWORM Contact Test LC50, ppm
Experimental: (§3) Effect on Tobacco Budworm and Beet Armyworm by Contact.
(§4) Stock solutions of the compounds to be tested having a known concentration were prepared by dissolving weighed amounts in a 90:10 mixture of high-purity acetone and ethanol and these solutions were diluted with distilled water (containing 0.05 percent by weight Tween 20™ surfactant) to obtain the spray solutions of known concentration employed. Teflon™ discs 5 cm in diameter were placed in plastic petri dishes of slightly larger diameter and these dishes were sprayed by means of a track sprayer applying 0.104 mL of spray solution per cup. The Teflon™ discs were allowed to dry, a single second-instar H. virescens (tobacco budworm) or S. exigua (beet armyworm) larva was placed on each Teflon™ disc, and each disc was capped with a plastic lid. Ten Teflon™ discs were prepared for each application rate and five application rates were usually run. Treated discs were stored for 24 hours at 25° C. and then the Teflon™ disc was removed and replaced with an untreated cotton leaf disc. After 5 more days of storage at 25 ° C. the dishes were graded for mortality. Untreated controls and positive controls (cypermethrin) were run simultaneously. The amount of test chemical required to kill half of the larvae (LD50) was calculated.

tobacco budworm [3] = assay: Effect on tobacco budworm, contact and ingestion test (treated cotton leaf discs); assay type: in vivo, H. virescens (tobacco budworm); settings: second-instar larvae, sprayed cotton leaf discs, 5 days at 25° C; for LC50: Heliothis virescens, foliar, 120 h, read-out: TOBACCO BUDWORM Contact and Ingestion Test LC50, ppm
Experimental: as §1, §2

tobacco budworm [4] = assay: Effect on tobacco budworm, contact test (treated Teflon discs); assay type: in vivo, H. virescens (tobacco budworm); settings: second-instar larvae, sprayed Teflon discs 24 hours, then 5 more days on untreated leaf, 25° C; for LC50: Heliothis virescens, 144 h, read-out: TOBACCO BUDWORM Contact Test LC50, ppm
Experimental: as §3, §4

Compound | LC50 (beet armyworm [1]) | LC50 (beet armyworm [2]) | LC50 (tobacco budworm [3]) | further results
O=C(Nc1ccc(OC(F)(F)F)cc1)N1CC(c2cc(C(F)(F)F)nc(C(F)(F)F)c2)C(c2ccccc2)=N1 (stereo not drawn) [U, 4,5-Dihydro-4-(2,6-di(trifluoromethyl)-4-pyridinyl)-3-phenyl-N-(4-trifluoromethoxyphenyl)-1H-pyrazole-1-carboxamide] | 37.9 µg/mL (≈ 67.4 µM) | > 100 µg/mL |  | 
O=C(Nc1ccc(C(F)(F)F)cc1)N1CC(c2ccc(C(F)(F)F)cn2)C(c2ccc(Cl)cc2)=N1 (stereo not drawn) [B, 3-(4-Chorophenyl)-4,5-dihydro-N-(4-trifluoromethylphenyl)-4-(5-trifluoromethyl-2-pyridinyl)-1H-pyrazole-1-carboxamide] | 10 µg/mL (≈ 19.5 µM) | > 80 µg/mL | 7.6 µg/mL (≈ 14.8 µM) | LC50 (tobacco budworm [4]): > 80 µg/mL
N#Cc1ccc(C2CN(C(=O)Nc3ccc(OC(F)(F)F)cc3)N=C2c2ccc(Cl)cc2)nc1 (stereo not drawn) [N] | 2.1 µg/mL (≈ 4.32 µM) | 7.1 µg/mL (≈ 14.6 µM) | 1.5 µg/mL (≈ 3.09 µM) | LC50 (tobacco budworm [4]): 18.3 µg/mL (≈ 37.7 µM)
O=C(Nc1ccc(Cl)cc1)N1CC(c2cccc(F)n2)C(c2ccc(F)cc2)=N1 (stereo not drawn) [F, N-(4-Chlorophenyl)-4,5-dihydro-3-(4-fluorophenyl)-4-(6-fluoro-2-pyridinyl)-1H-pyrazole-1-carboxamide] | > 800 µg/mL |  | 606 µg/mL (≈ 1470 µM) | 
O=C(Nc1ccc(OC(F)(F)F)cc1)N1CC(c2cnc3ccc(Cl)cc3c2)C(c2ccccc2)=N1 (stereo not drawn) [K, 4-(6-Chloro-3-quinolinyl)-4,5-dihydro-3-phenyl-N-(4-trifluoromethoxyphenyl)-1H-pyrazole-1-carboxamide] | 29.7 µg/mL (≈ 58.1 µM) |  | 70.7 µg/mL (≈ 138 µM) | 
4,5-Dihydro-3-(4-fluorophenyl)-4-(4-fluoro-5-trifluoromethyl-2-pyridinyl)- N-(4-trifluoromethoxyphenyl)-1H-pyrazole-1-carboxamide |  |  |  | TOBACCO BUDWORM Contact and Ingestion Test LC50, ppm (tobacco budworm [3]): 10.0 ppm; BEET ARMYWORM Contact and Ingestion Test LC50, ppm (beet armyworm [1]): 5.2 ppm; BEET ARMYWORM Contact Test LC50, ppm (beet armyworm [2]; 8640 min): 7.6 ppm; TOBACCO BUDWORM Contact Test LC50, ppm (tobacco budworm [4]; 8640 min): 80 ppm
O=C(Nc1ccc(OC(F)(F)F)cc1)N1CC(c2cnc3cc(Cl)ccc3c2)C(c2ccccc2)=N1 (stereo not drawn) [Q, 4-(7-Chloro-3-quinolinyl)-4,5-dihydro-3-phenyl-N-(4-trifluoromethoxyphenyl)-1H-pyrazole-1-carboxamide] | 13.4 µg/mL (≈ 26.2 µM) |  | 30.8 µg/mL (≈ 60.3 µM) | 
O=C(Nc1ccc(C(F)(F)F)cc1)N1CC(c2cnc(C(F)(F)F)cn2)C(c2ccc(F)cc2)=N1 (stereo not drawn) [Y, 4,5-Dihydro-3-(4-fluorophenyl)-N-(4-trifluoromethylphenyl)-4-(5-trifluoromethyl-2-pyrazinyl)-1H-pyrazole-1-carboxamide] | > 25 µg/mL | 10.5 µg/mL (≈ 21.1 µM) |  | 
O=C(Nc1ccc(OC(F)(F)F)cc1)N1CC(c2cccnc2)C(c2ccccc2)=N1 (stereo not drawn) [R, 4,5-Dihydro-3-phenyl-4-(3-pyridinyl)-N-(4-trifluoromethoxyphenyl)-1H-pyrazole-1-carboxamide] | > 400 µg/mL |  | 186 µg/mL (≈ 436 µM) | 
O=C(Nc1ccc(Cl)cc1)N1CC(c2ccc(C(F)(F)F)cn2)C(c2ccc(F)cc2)=N1 (stereo not drawn) [I, N-(4-Chlorophenyl)-4,5-dihydro-3-(4-fluorophenyl)-4-(5-trifluoromethyl-2-pyridinyl)-1H-pyrazole-1-carboxamide] | 2.1 µg/mL (≈ 4.54 µM) | < 5 µg/mL | 1.3 µg/mL (≈ 2.81 µM) | LC50 (tobacco budworm [4]): 49.7 µg/mL (≈ 107 µM)
O=C(Nc1ccc(Cl)cc1)N1CC(c2ccc(C(F)(F)F)cn2)C(c2ccc(Cl)cc2)=N1 (stereo not drawn) [D, 3-(4-Chlorophenyl)-N-(4-chlorophenyl)-4,5-dihydro-4-(5-trifluoromethyl-2-pyridinyl)-1H-pyrazole-1-carboxamide] | 1.8 µg/mL (≈ 3.76 µM) | 12.6 µg/mL (≈ 26.3 µM) | 2.1 µg/mL (≈ 4.38 µM) | LC50 (tobacco budworm [4]): 35.6 µg/mL (≈ 74.3 µM)
O=C(Nc1ccc(OC(F)(F)F)cc1)N1CC(c2cncnc2)C(c2ccc(F)cc2)=N1 (stereo not drawn) [S, 4,5-Dihydro-3-(4-fluorophenyl)-4-(5-pyrimidinyl)-N-(4-trifluoromethoxyphenyl)-1H-pyrazole-1-carboxamide] | 490 µg/mL (≈ 1100 µM) |  | 50 µg/mL (≈ 112 µM) | 
O=C(Nc1ccc(OC(F)(F)F)cc1)N1CC(c2ccc(C(F)(F)F)cn2)C(c2ccc(F)cc2)=N1 (stereo not drawn) [H, 4,5-Dihydro-3-(4-fluorophenyl)-N-(4-trifluoromethoxyphenyl)-4-(5-trifluoromethyl-2-pyridinyl)-1H-pyrazole-1-carboxamide] | 1.3 µg/mL (≈ 2.54 µM) | < 5 µg/mL | 2.3 µg/mL (≈ 4.49 µM) | LC50 (tobacco budworm [4]): 23.3 µg/mL (≈ 45.5 µM)
O=C(Nc1ccc(C(F)(F)F)cc1)N1CC(c2ccc(Cl)nn2)C(c2ccc(Cl)cc2)=N1 (stereo not drawn) [AA, 4-(6-Chloro-3-pyridazinyl)-3-(4-chlorophenyl)-4,5-dihydro-N-(4-trifluoromethylphenyl)-1H-pyrazole-1-carboxamide] | 20.3 µg/mL (≈ 42.3 µM) | 11.7 µg/mL (≈ 24.4 µM) |  | 
O=C(Nc1ccc(SC(F)(F)F)cc1)N1CC(c2ccc(C(F)(F)F)cn2)C(c2ccc(F)cc2)=N1 (stereo not drawn) [L, 4,5-Dihydro-3-(4-fluorophenyl)-4-(5-trifluoromethyl-2-pyridinyl)-N-((4-trifluoromethylthio)phenyl)-1H-pyrazol-1-carboxamide] | 7.9 µg/mL (≈ 14.9 µM) | > 80 µg/mL | 4.2 µg/mL (≈ 7.95 µM) | LC50 (tobacco budworm [4]): 63.5 µg/mL (≈ 120 µM)
O=C(Nc1ccc(OC(F)(F)F)cc1)N1CC(c2cnc(C(F)(F)F)nc2)C(c2ccc(F)cc2)=N1 (stereo not drawn) [W, 4,5-Dihydro-3-(4-fluorophenyl)-N-(4-trifluoromethoxyphenyl)-4-(2-trifluoromethyl-5-pyrimidinyl)-1-H-pyrazole-1-carboxamide] | 7.5 µg/mL (≈ 14.6 µM) |  | 6.1 µg/mL (≈ 11.9 µM) | 
O=C(Nc1ccc(C(F)(F)F)cc1)N1CC(c2cncc(Cl)n2)C(c2ccc(F)cc2)=N1 (stereo not drawn) [Z, 4-(6-Chloro-2-pyrazinyl)-4,5-dihydro-3-(4-fluorophenyl)-N-(4-trifluoromethylphenyl)-1H-pyrazole-1-carboxamide] | > 100 µg/mL | 75.8 µg/mL (≈ 163 µM) |  | 
O=C(Nc1ccc(OC(F)(F)F)cc1)N1CC(c2ccc3ccc(Cl)cc3n2)C(c2ccc(Cl)cc2)=N1 (stereo not drawn) [P, 3-(4-Chlorophenyl)-4-(7-chloro-2-quinolinyl)-4,5-dihydro-N-(4-trifluoromethoxyphenyl)-1H-pyrazole-1-carboxamide] | 40.6 µg/mL (≈ 74.4 µM) |  | 64.8 µg/mL (≈ 119 µM) | 
O=C(Nc1ccc(OC(F)(F)F)cc1)N1CC(c2cccc(F)n2)C(c2ccc(F)cc2)=N1 (stereo not drawn) [E, 4,5-Dihydro-3-(4-fluorophenyl)-4-(6-fluoro-2-pyridinyl)-N-(4-trifluoromethoxyphenyl)-1H-pyrazole-1-carboxamide] | 13.6 µg/mL (≈ 29.4 µM) |  | 70.7 µg/mL (≈ 153 µM) | 
O=C(Nc1ccc(OC(F)(F)F)cc1)N1CC(c2ccc(C(F)(F)F)cn2)C(c2ccc(Cl)cc2)=N1 (stereo not drawn) [C, 3-(4-Chlorophenyl)-4,5-dihydro-N-(4-trifluoromethoxyphenyl)-4-(5-trifluoromethyl-2-pyridinyl)-1H-pyrazole-1-carboxamide] | 7.9 µg/mL (≈ 14.9 µM) |  | 9.1 µg/mL (≈ 17.2 µM) | 
O=C(Nc1ccc(OC(F)(F)F)cc1)N1CC(c2ccc3cc(Cl)ccc3n2)C(c2ccc(Cl)cc2)=N1 (stereo not drawn) [O, 3-(4-Chlorophenyl)-4-(6-chloro-2-quinolinyl)-4,5-dihydro-N-(4-trifluoromethoxyphenyl)-1H-pyrazole-1-carboxamide] | > 200 µg/mL |  | > 200 µg/mL | 
O=C(Nc1ccc(OC(F)(F)F)cc1)N1CC(c2cncnc2)C(c2ccccc2)=N1 (stereo not drawn) [J, 4,5-Dihydro-3-phenyl-4-(5-pyrimidinyl),N-(4-trifluoromethoxyphenyl)-1H-pyrazole-1-carboxamide] | > 800 µg/mL |  | 135 µg/mL (≈ 316 µM) | 
CSc1ccc(NC(=O)N2CC(c3ccc(C(F)(F)F)cn3)C(c3ccc(Cl)cc3)=N2)cc1 (stereo not drawn) [Compound A, 3-(4-Chlorophenyl)-4,5-dihydro-N-(4-(methylthio)phenyl)-4-(5-trifluoromethyl-2-pyridinyl)-1H-pyrazole-1-carboxamide] | 107 µg/mL (≈ 218 µM) |  | > 400 µg/mL | 
